From PubChem BioAssay (NCI)
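Grown in 96-well plates, cells were treated for 48 hours with each compound at five concentrations. Insufficient inhibition: endpoint recorded as highest concentration tested. Abbreviation: GI50, concentration required for 50% inhibition of growth. TGI: concentration producing complete growth inhibition.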

Legend:
Assay in all cases: growth of human tumour cells (NCI), 48 h
MOLT-4 leukemia = tested on: MOLT-4 leukemia
OVCAR-4 ovarian = tested on: OVCAR-4 ovarian
HT29 colon = tested on: HT29 colon
PC-3 prostate = tested on: PC-3 prostate
IGROV1 ovarian = tested on: IGROV1 ovarian
MALME-3M melanoma = tested on: MALME-3M melanoma
CAKI-1 renal = tested on: CAKI-1 renal
NCI-H23 lung = tested on: NCI-H23 lung
COLO 205 colon = tested on: COLO 205 colon
HS 578T breast = tested on: HS 578T breast

| SMILES | GI50 (MOLT-4 leukemia) [µM] | TGI (MOLT-4 leukemia) [µM] | GI50 (OVCAR-4 ovarian) [µM] | TGI (OVCAR-4 ovarian) [µM] | GI50 (HT29 colon) [µM] | TGI (HT29 colon) [µM] | GI50 (PC-3 prostate) [µM] | TGI (PC-3 prostate) [µM] | GI50 (IGROV1 ovarian) [µM] | TGI (IGROV1 ovarian) [µM] | GI50 (MALME-3M melanoma) [µM] | TGI (MALME-3M melanoma) [µM] | GI50 (CAKI-1 renal) [µM] | TGI (CAKI-1 renal) [µM] | GI50 (NCI-H23 lung) [µM] | TGI (NCI-H23 lung) [µM] | GI50 (COLO 205 colon) [µM] | TGI (COLO 205 colon) [µM] | GI50 (HS 578T breast) [µM] | TGI (HS 578T breast) [µM] |
| --- | --- | --- | --- | --- | --- | --- | --- | --- | --- | --- | --- | --- | --- | --- | --- | --- | --- | --- | --- | --- |
| CCc1n(Cc2ccc3ccccc3c2)cc[n+]1Cc1ccc2ccccc2c1 | 0.829 | 2.99 | 0.307 | 1.28 | 0.563 | 2.23 | 0.699 | 2.49 | 0.736 | 2.32 | 0.247 | 1.3 | 12.4 | 25.5 | 0.396 | 2.02 | 0.376 | 1.73 | 1.5 | 5.62 |
| C[C@H]1CCC/C=C/[C@@H]2C[C@H](O)C[C@H]2[C@H](O)C(O)C(O)C(=O)O1 (some centres not stated) | 0.906 | 4.56 | – | – | 1.24 | 17.9 | 3.44 | > 29.8 | 2.96 | 11.7 | 1.56 | 5.57 | 3.78 | 46 | 2.23 | > 100 | 4.07 | > 100 | 0.702 | > 100 |
| C(#Cc1ccccc1C#Cc1cnccn1)c1cnccn1 | – | – | 38.3 | > 100 | 41.8 | > 100 | 18.6 | 55.3 | > 22.9 | > 47.9 | 29.8 | 80.4 | 12.5 | 51.5 | 21.9 | 57.3 | 54.8 | > 100 | 34.9 | > 100 |
| CN(C)Cc1c[nH]c2nc[nH]c(=O)c12 | – | 24.7 | – | > 100 | – | > 100 | – | > 100 | – | > 100 | – | > 100 | – | > 100 | – | > 100 | – | > 100 | – | > 100 |
| COc1cc(/C=C/C(=O)c2cccc(-n3cc(-c4ccccc4)[nH]c3=O)c2)ccc1O | 2.49 | 6.28 | 3.3 | > 23 | 3.77 | > 100 | 2.87 | 12 | 2.22 | 7.28 | 5.25 | 17.1 | 4.47 | 15.2 | 3.16 | 11.6 | 3.85 | 9.91 | 3.09 | 18.6 |
| Cc1cc(N)c2cc(NC(=O)/C=C\c3ccccc3Cl)ccc2n1 | 1.09 | 2.54 | 0.365 | 0.971 | 0.41 | 1.5 | 1.46 | 2.84 | 1.61 | 3.07 | 2.05 | 3.89 | 1.77 | 3.24 | 1.73 | 3.32 | 0.266 | 0.597 | 1.82 | 3.88 |
| CC1=C(C(=O)Nc2cc(F)c(F)cc2F)C(c2ccc(N(C)C)cc2)C(C(=O)Nc2cc(F)c(F)cc2F)=C(C)N1 | – | > 77.2 | – | > 79.1 | – | > 91.3 | 13.7 | > 100 | – | > 100 | – | > 100 | – | > 67.7 | – | > 85.1 | – | > 100 | 28.2 | > 100 |
| O=C1/C(=C/c2ccccc2)CN(C(=O)/C=C/c2ccccc2)C/C1=C\c1ccccc1 | – | 35.4 | – | 24.7 | – | 11.8 | – | 4.33 | – | 22.2 | – | 34.1 | – | 99.4 | – | 32.6 | – | 19.4 | – | > 100 |
| Cc1ccc(S(=O)(=O)NC(=O)Nc2ncn[nH]2)cc1 | – | > 100 | – | > 100 | – | > 100 | – | > 100 | – | > 100 | – | > 100 | – | > 100 | – | > 100 | – | > 100 | – | > 100 |
| CC(=O)OC1CCC2(C)C(=CCC3C2CCC2(C)C3CC3OC4(CCC(C)CN4)C(C)C32)C1 (configuration not stated) | – | > 100 | – | > 100 | – | > 100 | – | > 100 | – | > 100 | – | > 100 | – | > 100 | – | > 100 | – | > 100 | – | > 100 |
| CCOC(=O)CCC(NC(=O)c1ccc(Oc2nc3cc(N)cc(N)c3nc2-c2ccccc2)cc1)C(=O)OCC (configuration not stated) | 39 | > 100 | 35.6 | > 100 | – | – | 73.5 | > 100 | 18.2 | 78.7 | 18.5 | 35.2 | 49.5 | > 100 | 15.5 | 30.4 | 29.9 | > 100 | 43.7 | > 100 |
| CC(=O)OC1C(C)OC(Oc2c(-c3ccc(O)cc3)oc3cc(O)cc(O)c3c2=O)C(O)C1OC(C)=O (configuration not stated) | 26.7 | > 75 | 35.9 | > 100 | 31.4 | > 91.3 | 30.5 | > 100 | 31.7 | > 79.8 | 21.3 | > 75.2 | 41.4 | > 100 | 26.4 | > 80.7 | > 67.3 | > 100 | 24.9 | 82.4 |
| CC(C)OC(=O)NNc1c(Cl)cc(Cl)cc1Cl | – | > 100 | – | – | – | > 100 | – | > 100 | – | > 100 | – | 74.2 | – | > 100 | – | > 100 | – | > 100 | – | > 100 |
| CCN(CC)CCNc1ccc2nc(C)n3c4ccc(OC)cc4c(=O)c1c23 | – | 1.15 | – | 8.25 | – | 1.99 | – | 17.5 | – | 4.26 | – | 21.7 | – | 13 | – | 18.3 | – | 13 | – | 6.68 |
| CCn1cnc(C[C@H](NC(=O)[C@@H](NC(=O)Nc2cc(C(F)(F)F)cc(C(F)(F)F)c2)C(C)(C)C)C(=O)OC)c1 | > 10 | > 10 | > 10 | > 10 | > 10 | > 10 | > 10 | > 10 | > 10 | > 10 | > 10 | > 10 | > 10 | > 10 | > 10 | > 10 | > 10 | > 10 | > 10 | > 10 |
| CCOC(=O)c1nc2sc(Cl)cn2c1/C=N/N=C(N)N | 22.8 | > 100 | 30.3 | > 100 | 28.7 | > 86.4 | 24.4 | > 56.8 | 32.7 | > 100 | 17.8 | 37.9 | 27 | > 76.9 | 20.4 | > 69.8 | 15.1 | 37.9 | 19.1 | 74.5 |
| O=C1/C(=C/c2ccc([N+](=O)[O-])s2)Oc2ccc(Br)cc21 | 0.461 | 3.82 | 0.352 | 1.43 | – | – | 0.251 | 0.774 | 0.309 | 0.964 | 0.347 | 1.6 | 1.16 | 9.42 | 0.549 | 2.22 | 0.47 | 1.86 | 0.448 | > 100 |
| CN(C)Cc1nsc(N(C)C)n1 | – | – | – | > 100 | – | > 100 | – | > 100 | – | > 100 | – | > 100 | – | > 100 | – | > 100 | – | > 100 | – | > 100 |
| O=C(/C=C/c1cccc(Cl)c1)c1ccccc1 | 4.07 | 36.4 | 13.6 | 26.8 | – | – | 4.13 | 22.3 | 2.06 | 6.41 | 14.4 | 33.7 | 2.73 | 11.5 | 14.8 | 29.6 | 16.8 | 31.7 | 2.1 | 7.45 |
| Cc1nc2ccccc2c(/C=C/c2ccc(C(F)(F)F)cc2)c1C(=O)/C=C/c1ccccc1 | 0.508 | 5.79 | – | – | 1.04 | 6.05 | 1.34 | 3.17 | 1.12 | 3 | 1.6 | 3.02 | 1.23 | 2.51 | – | – | 1.55 | 3.82 | 1.92 | 5.75 |
| Cc1nc2ccccc2c(/C=C/c2ccc(F)cc2)c1C(=O)/C=C/c1ccccc1 | 1.74 | 6.57 | 3.66 | > 100 | 2.81 | > 100 | 2.53 | 8.81 | 1.71 | 6.15 | 2.18 | 5.03 | 1.58 | 3.83 | 1.99 | 5.43 | – | – | 5.15 | > 100 |
| NC(=O)c1c(NC(=O)c2ccc(C(F)(F)F)cc2Cl)sc2c1CCC(=O)C2 | 0.361 | > 100 | – | – | 0.346 | 1.67 | 0.164 | 1.3 | 0.498 | 2.37 | 0.292 | 1.39 | 0.244 | 0.881 | 0.288 | 1.68 | 0.382 | 1.49 | 0.368 | 5.94 |
